Laboratory results reported in patent publication US20170000133A1, “BENZOXABOROLE FUNGICIDES” (SYNGENTA PARTICIPATIONS AG, priority 2013, published 2017).

Assays:
Pythium ultimum = Pythium ultimum / liquid culture (seedling damping off); type: cell-based; conditions: Globisporangium ultimum; 200 ppm; potato dextrose broth, 24° C., 2-3 days after application; read-out: disease control (inhibition of growth determined photometrically)
[1] = test system: Mycosphaerella arachidis (Cercospora arachidicola); test: Mycosphaerella arachidis (Cercospora arachidicola) / liquid culture (early leaf spot); type: cell-based; conditions: PDB potato dextrose broth, 24° C., 4-5 days after application, read-out: disease control (inhibition of growth determined photometrically)
Protocol: (§1) 12. Mycosphaerella arachidis (Cercospora arachidicola)/Liquid Culture (Early Leaf Spot): Conidia of the fungus from cryogenic storage were directly mixed into nutrient broth (PDB potato dextrose broth). After placing a DMSO solution of test compound into a 96-well microtiter plate at an application rate of 200 ppm, the nutrient broth containing the fungal spores was added. The test plates were incubated at 24° C. and the inhibition of growth was determined photometrically 4-5 days after application.

[2] = test system: Mycosphaerella graminicola (Septoria tritici); test: Mycosphaerella graminicola (Septoria tritici) / liquid culture (Septoria blotch); type: cell-based; conditions: Zymoseptoria tritici, PDB potato dextrose broth, 24° C., 4-5 days after application, read-out: disease control (inhibition of growth determined photometrically)
Protocol: as §1, with “13.” for “12.”, “graminicola (Septoria tritici)/Liquid” for “arachidis (Cercospora arachidicola)/Liquid”, “(Septoria Blotch):” for “(Early Leaf Spot):”

Plasmopara viticola = test: whole plant or invertebrate; type: in vivo; conditions: foliar, read-out: disease control
Gaeumannomyces graminis = Gaeumannomyces graminis / liquid culture (take-all of cereals); type: cell-based; conditions: PDB potato dextrose broth, 24° C., 4-5 days after application, read-out: disease control (inhibition of growth determined photometrically)
Protocol: 14. Gaeumannomyces graminis/Liquid Culture (Take-all of Cereals): Mycelial fragments of the fungus from cryogenic storage were directly mixed into nutrient broth (PDB potato dextrose broth). After placing a DMSO solution of test compound into a 96-well microtiter plate at an application rate of 200 ppm, the nutrient broth […], containing the fungal spores is added. The test plates were incubated at 24° C. and the inhibition of growth was determined photometrically 4-5 days after application.

[3] = test system: Monographella nivalis (Microdochium nivale); test: Monographella nivalis (Microdochium nivale) / liquid culture (foot rot cereals); type: cell-based; conditions: PDB potato dextrose broth, 24° C., 4-5 days after application, read-out: disease control (inhibition of growth determined photometrically)
[4] = test system: Thanatephorus cucumeris (Rhizoctonia solani); test: Thanatephorus cucumeris (Rhizoctonia solani) / liquid culture (foot rot, damping-off); type: cell-based; conditions: PDB potato dextrose broth, 24° C., 3-4 days after application, read-out: disease control (inhibition of growth determined photometrically)
Protocol: 17. Thanatephorus cucumeris (Rhizoctonia solani)/Liquid Culture (Foot Rot, Damping-Off): Mycelia fragments of a newly grown liquid culture of the fungus were directly mixed into nutrient broth (PDB potato dextrose broth). After placing a DMSO solution of the test compounds into a 96-well microtiter plate at an application rate of 200 ppm, the nutrient broth containing the fungal material was added. The test plates were incubated at 24° C. and the inhibition of growth was determined photometrically 3-4 days after application.

O=C(NCc1ccccc1)c1cc2c(cc1F)COB2O [Compound 104]
≥ 80%: inhibition at 200 ppm (Pythium ultimum) | inhibition at 200 ppm [1]

O=C(Nc1ccc2ccccc2n1)c1cc2c(cc1Cl)COB2O [Compound 154]
≥ 80%: inhibition at 200 ppm (Pythium ultimum) | inhibition at 200 ppm [2]

O=C(Nc1ccc2ccccc2n1)c1cc2c(cc1F)COB2O [Compound 179]
≥ 80%: inhibition at 200 ppm (Pythium ultimum) | pest or weed control at 200 ppm (Plasmopara viticola) | inhibition at 200 ppm (Gaeumannomyces graminis) | inhibition at 200 ppm [3] | inhibition at 200 ppm [2]

O=C(NCc1ccccc1)c1ccc2c(c1)B(O)OC2 [Compound 261]
≥ 80%: inhibition at 200 ppm (Pythium ultimum) | pest or weed control at 200 ppm (Plasmopara viticola) | inhibition at 200 ppm [1]

O=C(NCCOc1ccccc1)c1ccc2c(c1)B(O)OC2 [Compound 267]
≥ 80%: inhibition at 200 ppm (Pythium ultimum) | inhibition at 200 ppm [1]

COc1ccc(CNC(=O)c2ccc3c(c2)B(O)OC3)cc1 [Compound 271]
≥ 80%: inhibition at 200 ppm (Pythium ultimum) | pest or weed control at 200 ppm (Plasmopara viticola) | inhibition at 200 ppm [1]

Cc1csc(NC(=O)c2ccc3c(c2)B(O)OC3)n1 [Compound 298]
≥ 80%: inhibition at 200 ppm (Pythium ultimum) | pest or weed control at 200 ppm (Plasmopara viticola) | inhibition at 200 ppm [1]

CC(=O)c1sc(NC(=O)c2ccc3c(c2)B(O)OC3)nc1C [Compound 302]
≥ 80%: inhibition at 200 ppm (Pythium ultimum) | inhibition at 200 ppm [1]

O=C(OC(CF)CF)c1ccc2c(c1)B(O)OC2 [Compound 311]
≥ 80%: inhibition at 200 ppm (Pythium ultimum) | pest or weed control at 200 ppm (Plasmopara viticola) | inhibition at 200 ppm [1] | inhibition at 200 ppm [3] | inhibition at 200 ppm [4]

O=C(OCC1CCSCC1)c1ccc2c(c1)B(O)OC2 [Compound 319]
≥ 80%: inhibition at 200 ppm (Pythium ultimum) | inhibition at 200 ppm [1] | inhibition at 200 ppm [3] | inhibition at 200 ppm [2] | inhibition at 200 ppm [4]

O=C(OCC(Cl)(Cl)Cl)c1ccc2c(c1)B(O)OC2 [Compound 321]
≥ 80%: inhibition at 200 ppm (Pythium ultimum) | inhibition at 200 ppm (Gaeumannomyces graminis) | inhibition at 200 ppm [3] | inhibition at 200 ppm [2] | inhibition at 200 ppm [4]

CCCCSCCOC(=O)c1ccc2c(c1)B(O)OC2 [Compound 324]
≥ 80%: inhibition at 200 ppm (Pythium ultimum) | pest or weed control at 200 ppm (Plasmopara viticola) | inhibition at 200 ppm (Gaeumannomyces graminis) | inhibition at 200 ppm [1] | inhibition at 200 ppm [3] | inhibition at 200 ppm [2] | inhibition at 200 ppm [4]

O=C(OCCCF)c1ccc2c(c1)B(O)OC2 [Compound 330]
≥ 80%: inhibition at 200 ppm (Pythium ultimum) | pest or weed control at 200 ppm (Plasmopara viticola) | inhibition at 200 ppm (Gaeumannomyces graminis) | inhibition at 200 ppm [1] | inhibition at 200 ppm [3] | inhibition at 200 ppm [4]

O=C(OCc1cccc2ccccc12)c1ccc2c(c1)B(O)OC2 [Compound 333]
≥ 80%: inhibition at 200 ppm (Pythium ultimum) | inhibition at 200 ppm [1] | inhibition at 200 ppm [3] | inhibition at 200 ppm [2]

O=C(OCC1CCCO1)c1ccc2c(c1)B(O)OC2 (stereo not shown) [Compound 337]
≥ 80%: inhibition at 200 ppm (Pythium ultimum) | pest or weed control at 200 ppm (Plasmopara viticola) | inhibition at 200 ppm [1] | inhibition at 200 ppm [3] | inhibition at 200 ppm [4]

N#CCOC(=O)c1ccc2c(c1)B(O)OC2 [Compound 338]
≥ 80%: inhibition at 200 ppm (Pythium ultimum) | pest or weed control at 200 ppm (Plasmopara viticola) | inhibition at 200 ppm [4]

C[Si](C)(C)/C=C/COC(=O)c1ccc2c(c1)B(O)OC2 [Compound 342]
≥ 80%: inhibition at 200 ppm (Pythium ultimum) | pest or weed control at 200 ppm (Plasmopara viticola) | inhibition at 200 ppm (Gaeumannomyces graminis) | inhibition at 200 ppm [1] | inhibition at 200 ppm [3] | inhibition at 200 ppm [2] | inhibition at 200 ppm [4]

O=C(OCc1ncc(C(F)(F)F)cc1Cl)c1ccc2c(c1)B(O)OC2 [Compound 347]
≥ 80%: inhibition at 200 ppm (Pythium ultimum) | inhibition at 200 ppm (Gaeumannomyces graminis) | inhibition at 200 ppm [1]

COCCOC(=O)c1ccc2c(c1)B(O)OC2 [Compound 350]
≥ 80%: inhibition at 200 ppm (Pythium ultimum) | inhibition at 200 ppm [1] | inhibition at 200 ppm [3] | inhibition at 200 ppm [4]

O=C(OCCCCc1ccc2ccccc2c1)c1ccc2c(c1)B(O)OC2 [Compound 353]
≥ 80%: inhibition at 200 ppm (Gaeumannomyces graminis) | inhibition at 200 ppm [1]

O=C(OC1CCOC1)c1ccc2c(c1)B(O)OC2 (stereo not shown) [Compound 364]
≥ 80%: inhibition at 200 ppm (Pythium ultimum) | pest or weed control at 200 ppm (Plasmopara viticola) | inhibition at 200 ppm [4]

O=C(OC1CCOCC1)c1ccc2c(c1)B(O)OC2 [Compound 366]
≥ 80%: inhibition at 200 ppm (Pythium ultimum) | pest or weed control at 200 ppm (Plasmopara viticola) | inhibition at 200 ppm [1] | inhibition at 200 ppm [4]

O=C(OC(CF)CF)c1cc2c(cc1F)COB2O [Compound 368]
≥ 80%: inhibition at 200 ppm (Pythium ultimum) | pest or weed control at 200 ppm (Plasmopara viticola) | inhibition at 200 ppm [3] | inhibition at 200 ppm [4]

COCCOCCOCCOC(=O)c1ccc2c(c1)B(O)OC2 [Compound 371]
≥ 80%: inhibition at 200 ppm (Pythium ultimum) | inhibition at 200 ppm [1]

O=C(OCC(F)(F)Cl)c1cc2c(cc1F)COB2O [Compound 374]
≥ 80%: inhibition at 200 ppm (Pythium ultimum) | pest or weed control at 200 ppm (Plasmopara viticola) | inhibition at 200 ppm (Gaeumannomyces graminis) | inhibition at 200 ppm [3] | inhibition at 200 ppm [2] | inhibition at 200 ppm [4]

C[Si](C)(C)CCCOC(=O)c1cc2c(cc1F)COB2O [Compound 377]
≥ 80%: inhibition at 200 ppm (Pythium ultimum) | inhibition at 200 ppm (Gaeumannomyces graminis) | inhibition at 200 ppm [1] | inhibition at 200 ppm [3] | inhibition at 200 ppm [2] | inhibition at 200 ppm [4]

CC(F)COC(=O)c1cc2c(cc1F)COB2O (stereo not shown) [Compound 396]
≥ 80%: inhibition at 200 ppm (Pythium ultimum) | pest or weed control at 200 ppm (Plasmopara viticola) | inhibition at 200 ppm [1] | inhibition at 200 ppm [3] | inhibition at 200 ppm [4]

O=C(COC(=O)c1cc2c(cc1F)COB2O)c1ccccc1 [Compound 397]
≥ 80%: inhibition at 200 ppm (Pythium ultimum) | pest or weed control at 200 ppm (Plasmopara viticola) | inhibition at 200 ppm [3] | inhibition at 200 ppm [2] | inhibition at 200 ppm [4]

O=C(OCc1ccco1)c1cc2c(cc1F)COB2O [Compound 398]
≥ 80%: inhibition at 200 ppm (Pythium ultimum) | pest or weed control at 200 ppm (Plasmopara viticola) | inhibition at 200 ppm [1] | inhibition at 200 ppm [3] | inhibition at 200 ppm [4]

C#CC(OC(=O)c1cc2c(cc1F)COB2O)c1ccccc1 (stereo not shown) [Compound 399]
≥ 80%: inhibition at 200 ppm (Pythium ultimum) | pest or weed control at 200 ppm (Plasmopara viticola) | inhibition at 200 ppm (Gaeumannomyces graminis) | inhibition at 200 ppm [3] | inhibition at 200 ppm [2] | inhibition at 200 ppm [4]

O=C(OCC1CCCO1)c1cc2c(cc1F)COB2O (stereo not shown) [Compound 400]
≥ 80%: inhibition at 200 ppm (Pythium ultimum) | pest or weed control at 200 ppm (Plasmopara viticola) | inhibition at 200 ppm [4]

O=C(OCc1ccc(C(F)(F)F)nc1)c1cc2c(cc1F)COB2O [Compound 405]
≥ 80%: inhibition at 200 ppm (Pythium ultimum) | inhibition at 200 ppm [1] | inhibition at 200 ppm [3] | inhibition at 200 ppm [4]

O=C(OCCCCc1ccc2ccccc2c1)c1cc2c(cc1F)COB2O [Compound 415]
≥ 80%: inhibition at 200 ppm (Gaeumannomyces graminis) | inhibition at 200 ppm [1] | inhibition at 200 ppm [3] | inhibition at 200 ppm [4]

O=C(OC1CCCCC1)c1cc2c(cc1F)COB2O [Compound 417]
≥ 80%: inhibition at 200 ppm (Pythium ultimum) | pest or weed control at 200 ppm (Plasmopara viticola) | inhibition at 200 ppm (Gaeumannomyces graminis) | inhibition at 200 ppm [3] | inhibition at 200 ppm [2] | inhibition at 200 ppm [4]

O=C(OCCF)c1cc2c(cc1F)COB2O [Compound 423]
≥ 80%: inhibition at 200 ppm (Pythium ultimum) | pest or weed control at 200 ppm (Plasmopara viticola) | inhibition at 200 ppm (Gaeumannomyces graminis) | inhibition at 200 ppm [1] | inhibition at 200 ppm [3] | inhibition at 200 ppm [2] | inhibition at 200 ppm [4]
